Drawing on a melting point compilation (Tetko et al.; mined from patent text by program, amines drawn as free bases though some values may be those of a salt), this text covers melting point for 65 compounds.

Each structure is given as a SMILES string.

For `COCCOCCCOc1ccc(/C=C/C(=O)O)c(Oc2ncc(C(F)(F)F)cc2Cl)c1`, the melting point is 103 to 104 °C.
Regarding `CC(C)N1CCC(c2c[nH]c3ccc(NS(C)(=O)=O)cc23)CC1`, the melting point was 104 to 108 °C.
The same measure for `CN(C)c1cccc(CSC2NC(=S)NC2(C)C)c1` (stereo not given): 178 to 179 °C; for `COC(=O)c1cc2cc3[nH]c(=O)oc3cc2[nH]1`: 267 to 277 °C.
In the case of `CCC1C(C)=NN=C(c2ccccc2C)c2cc(OC)c(OC)cc21` (stereo not given), the melting point fell in the range of 170 to 171 °C.
Take `CC1(C)OC2c3cc(F)ccc3N3CCC2(CC3)O1` (stereo not given): the melting point was in the range of 120 to 122 °C.
The value for `CC(=O)OCCCCN1CCC(CNC(=O)[C@@H]2CCCN2S(=O)(=O)c2ccc(Cl)c(COc3cccc4c(-n5ccnc5)cc(C)nc34)c2Cl)CC1` was 86 °C.
In turn, `Cc1ccc(=O)[nH]c1C` came in with a melting point of 202 to 207 °C.
The value for `COC(=O)c1c(-c2ccccc2Cl)c2cc(C)c(C)cc2n(C)c1=O` was 202 to 203 °C; that for `CCCNCC(O)COc1ccccc1CCCc1cccc2[nH]ccc12` (stereo not given) was 99 to 100 °C.
Regarding `C=COC(=O)N1C[C@@H]2C(=O)CCC(c3ccccc3)(c3ccccc3)[C@@H]2C1` (racemic), the melting point amounted to 178 °C.
The value for `COc1ccc2cc([C@H](C)C(=O)OCC3(C(SN=O)(C4CC4)C4CC4)CCN(C)CC3)ccc2c1` was 88 °C; that for `Cc1c2n(c3ccc(Br)cc13)CCCC2O` (stereo not given) was 120 to 123 °C; that for `CCC1CC(NC(C)=O)=NN1c1cccc(Cl)n1` (stereo not given) was 170 to 171 °C.
`CCSc1cc(C)nc(SCC)c1NC(=O)CCCCCCSc1nc2cccc(C(F)(F)F)c2o1` showed a melting point of 127 to 128 °C.
Consider `CCN(CCc1ccccc1OCc1ccccc1)c1ccc(C(=O)O)cc1`, for which the melting point came to 175 °C.
The same measure for `O=S(Cc1ccccn1)c1ccc(F)cc1` (stereo not given): 92 to 94 °C; for `O=C(O)CCCc1cc2nc(Cl)ccc2n1S(=O)(=O)c1ccc(N2CCCC2)cc1`: 88 °C; for `O=C1CCC(O)C(C(c2ccccc2)c2ccccc2)N1` (stereo not given): 208 °C.
The same measure for `CNCc1ccc(Cc2nc3ccccc3[nH]2)cc1`: 157 to 160 °C; for `C1CC(C23CSC(SC2)SC3)C1`: 112 to 114 °C.
As to `CCCCc1nn(-c2cc(NC(=O)CC)ccc2Cl)c(=O)n1Cc1ccc(-c2ccccc2S(=O)(=O)NC(=O)c2ccccc2Oc2ccccc2)cc1`, the melting point lay within 113 to 116 °C.
`COc1ccc(C2=NN(CC(=O)c3ccccc3)C(=O)[C@H]3CCCC[C@@H]23)cc1OC` (relative stereo) yielded a melting point of 133 to 135 °C.
`COC(CCCNC(=O)C1CCC(C(=O)NCCCC(OC)OC)CC1)OC` (stereo not given) displayed a melting point of 191 to 195 °C.
The value for `CCCCCCc1ccnc(-c2ccc(C(N)=O)cc2)n1` was 232 to 233 °C; that for `Cc1cccc2c(=O)cc(O)c(=O)[nH]c12` was 184 to 186 °C; that for `CC(NC(=O)OC(C)(C)C)C1CCN(c2c(F)cc3c(=O)[nH]c(=O)n4c3c2CCC4C)C1` (stereo not given) was 123 to 125 °C.
`C=Cc1ccc(Nc2nc(Cl)nc(OC)n2)cc1` registered a melting point of 118 to 122 °C.
Take `OCc1cc(Cl)c(Cl)c(Cl)n1`: the melting point fell in the range of 82 to 83 °C.
Consider `Nc1nc(=O)n(CC2CC2)cc1F`, for which the melting point was 224 to 226 °C.
The same measure for `Cc1cc(I)ccc1Nc1c(-c2nnc(S)o2)ccc(F)c1F`: 232 to 233 °C; for `CC(OC(=O)Nc1ccccc1)c1ccccc1[N+](=O)[O-]` (stereo not given): 74 to 75 °C.
The value for `CC(C)C#Cc1ncn2c1CN(C)C(=O)c1c(Cl)cccc1-2` was 128 to 130 °C.
The same measure for `CNC(=O)c1ccc(N2CCN(Cc3cc(Cc4ccccc4)c4c(c3)NC(=O)C(C)O4)CC2)cc1` (stereo not given): 227 to 231 °C; for `CC(=O)Oc1ccc(CCC(=O)Nc2cc(C)c(O)c(C)c2)cc1OC(C)=O`: 118 to 119 °C; for `CCCCCCCCCCNC(=O)Nc1ccc(N(C)C)cc1C(=O)NCC1CCN(C(c2ccccc2)c2ccccc2)CC1`: 145 to 147 °C.
For `COc1cc(NC(=O)n2cc(F)c(=O)[nH]c2=O)cc(OC)c1OC`, the melting point was 168 to 170 °C.
The value for `O=C(CC(=O)N1CCOCC1)c1ccc2ccccc2c1O` was 128 to 130 °C; that for `CC(=O)NC1CCC(NC(=O)C2CC3c4cccc5c4c(cn5C(C)C)CC3N(C)C2)CC1` (stereo not given) was greater than 280 °C; that for `ClCc1cccc2cc(Br)ccc12` was 73 to 76 °C.
The value for `CCCNc1nc(C#N)c(C#N)nc1-c1cccc(Cl)c1` was 120 to 121 °C; that for `Cn1c(=O)n(Cc2ccc(F)cc2)c(=O)c2cc(C#CCc3ccccc3)ccc21` was 160 °C; that for `CNc1ccc(-c2cnc3[nH]c(=O)n(CC4CCOCC4)c3n2)cn1` was greater than 260 °C.
The same measure for `COc1ccc2cc(-n3cnnc3)cc(C)c2n1`: 157 to 159 °C; for `CC(=O)NC[C@H]1CN(c2ccc(N3C[C@H]4CN(C(=O)CO)C[C@H]4C3)c(F)c2)C(=O)O1`: 167 to 168 °C; for `O=S(=O)(Nc1cccc(CCOCc2cccc(-c3ccc(F)cc3)n2)c1)C(F)(F)F`: 71 to 73 °C.
Turning to `CC1(C)[C@@H](C(=O)Nc2ccncc2)[C@@H]1c1ccc(S(N)(=O)=O)cc1` (relative stereo), the melting point was 270 to 274 °C.
The same measure for `COCCC1(C(=O)N[C@@H](Cc2ccc(-c3c(C(F)(F)F)cc(C)n(C)c3=O)cc2)C(=O)O)CCCC1`: 181 to 183 °C.
The same measure for `CCCC12CCC(c3ccc(C#N)c(F)c3)(CC1)CC2`: 63 °C.
The same measure for `CC1CCCC(C)N1CCCC(O)(c1ccccc1)c1ccccc1` (stereo not given): 90 to 91 °C.
In the case of `CCCNC(=NC(=Nc1ccccc1)N1CCOCC1)C(C)C`, the melting point lay within 122 to 124 °C.
The same measure for `O=C(O)CCC(Cl)(Cl)Cl`: 54.8 °C; for `O=C(CCl)Nc1ccc(Sc2ccc([N+](=O)[O-])cc2)cc1`: 217 to 219 °C.
For `CNC(=O)c1cc(N)cc(N2CCOCC2)c1`, the melting point was 201 to 204 °C.
The same measure for `O=c1[nH]nc(-c2cccc(OCc3csc(-c4ccccc4F)n3)c2)o1`: 198 to 202 °C.
The value for `O=C(O)c1cn(-c2ccc(F)cc2)c2cc(-c3ccncc3)ccc2c1=O` was 280 to 281 °C; that for `CC(C)(C)C(=O)N1CCSC1=S` was 48 to 50 °C; that for `Cn1ccnc1Sc1ccc(Nc2c(C#N)cnc3cc(/C=C/CCN4CCCCC4)ccc23)cc1Cl` was 205 to 210 °C.
The same measure for `O=C1C(Br)=C(Br)C(=O)c2ncccc21`: 243 to 245 °C.
On to `Cc1nc2c(C=O)cccn2c1Br`, for which the melting point lay in the range of 137 to 139 °C.
The same measure for `O=C(NNC(=O)c1occ(-c2ccccc2)c1-c1ccccc1)c1ccoc1`: 180 to 183 °C.
The value for `Oc1ccc2c(c1)CN(C1CC1)C2` was 170 °C.
The value for `COC(=O)COc1cc(N(C(=O)CCl)C(=O)C2=C(C(=O)OC)CCCC2)c(F)cc1Cl` was 144 to 145 °C; that for `CC1=C(C(=O)O)N2C(=O)C(NC(=O)Cc3ccc(CN=[N+]=[N-])cc3)C2SC1` (stereo not given) was 154 to 155 °C.
As to `O=C(Nc1c[nH]nc1C(=O)NCCc1ccc(Br)cc1)c1ccccn1`, the melting point fell in the range of 266 to 270 °C.
